Numbers after ± are expanded uncertainties.
How the values were obtained:
[1] = Molar enthalpy of transition or fusion; conditions: Crystal; DSC
[2] = Crystal; DSC

Row | Molar enthalpy of transition or fusion [1] [kcal/mol] | Triple point temperature [2] [K] | Structure (SMILES)
1 | 5.55 ± 1.1 | 352.56 ± 2.3 | COc1ccc(OC)c(N)c1 [2,5-dimethoxyaniline]
2 | 5.88 ± 0.908 | 389.38 ± 3.7 | COc1cc(Cl)c(OC)cc1N [4-chloro-2,5-dimethoxyaniline]

Reference: the NIST ThermoML archive (doi:10.1021/acs.jced.9b00011)
